Test results from the supplement of paper PMC10307832.

Legend:
Experiment in all cases: relative viability (nuclei count vs DMSO), 5 days (fraction); higher = more cells survive
Masitinib + Foretinib = compound: Cc1ccc(NC(=O)c2ccc(CN3CCN(C)CC3)cc2)cc1Nc1nc(-c2cccnc2)cs1 [Masitinib] + COc1cc2c(Oc3ccc(NC(=O)C4(C(=O)Nc5ccc(F)cc5)CC4)cc3F)ccnc2cc1OCCCN1CCOCC1 [Foretinib] (partner 0.25 µM)
In short: (§1)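 Medians of duplicate plates are given as relative viability. That measure is the nuclei count in treated wells divided by the count in vehicle wells. Counts were taken on 4× images of lung cancer cell lines in 1536-well plates, 5 days after pin-tool dosing the day after seeding with one drug alone or a fixed anchor-drug dose plus five library-drug doses (not always all listed) in √10 steps.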

Masitinib + Phenformin = compound: Cc1ccc(NC(=O)c2ccc(CN3CCN(C)CC3)cc2)cc1Nc1nc(-c2cccnc2)cs1 [Masitinib] + N=C(N)NC(=N)NCCc1ccccc1 [Phenformin] (partner 250 µM)
In short: as §1

[1] = compound: CC1=CC(=CC=C1)NC2=NC(=CS2)C3=CC=NC=C3 + Cc1nc(Nc2ncc(C(=O)Nc3c(C)cccc3Cl)s2)cc(N2CCN(CCO)CC2)n1 [Dasatinib] (partner 0.075 µM)
In short: as §1

[2] = compound: CC1=CC(=CC=C1)NC2=NC(=CS2)C3=CC=NC=C3 + Cc1nc(NC(=O)N2CCC[C@H]2C(N)=O)sc1-c1ccnc(C(C)(C)C(F)(F)F)c1 [Alpelisib] (partner 2 µM)
In short: as §1

| Cell Line | relative viability (Masitinib + Foretinib; first compound 0.03162 µM) | relative viability (Masitinib + Foretinib; first compound 0.1 µM) | relative viability (Masitinib + Foretinib; first compound 0.3162 µM) | relative viability (Masitinib + Foretinib; first compound 1 µM) | relative viability (Masitinib + Phenformin; first compound 0.03162 µM) | relative viability (Masitinib + Phenformin; first compound 0.1 µM) | relative viability (Masitinib + Phenformin; first compound 0.3162 µM) | relative viability (Masitinib + Phenformin; first compound 1 µM) | relative viability ([1]; first compound 0.08 µM) | relative viability ([1]; first compound 0.253 µM) | relative viability ([1]; first compound 0.8 µM) | relative viability ([1]; first compound 2.53 µM) | relative viability ([1]; first compound 8 µM) | relative viability ([2]; first compound 0.08 µM) | relative viability ([2]; first compound 0.253 µM) | relative viability ([2]; first compound 0.8 µM) | relative viability ([2]; first compound 2.53 µM) | relative viability ([2]; first compound 8 µM) | relative viability (Masitinib + Foretinib; first compound 0.01 µM) | relative viability (Masitinib + Phenformin; first compound 0.01 µM) |
| --- | --- | --- | --- | --- | --- | --- | --- | --- | --- | --- | --- | --- | --- | --- | --- | --- | --- | --- | --- | --- |
| NCI-H1666 | 0.889 | 0.91 | 1.03 | 1 | 0.527 | 0.637 | 0.487 | 0.56 | 0.734 | 0.737 | 0.699 | 0.522 | 0.582 | 0.44 | 0.597 | 0.447 | 0.472 | 0.298 |  |  |
| NCI-H1734 | 0.914 | 0.898 | 1.05 | 0.811 | 0.423 | 0.493 | 0.379 | 0.339 | 0.471 | 0.435 | 0.491 | 0.503 | 0.538 | 0.615 | 0.683 | 0.672 | 0.757 | 0.687 | 0.922 | 0.423 |
| NCI-H1755 | 0.927 | 0.975 | 0.897 | 0.828 | 0.51 | 0.545 | 0.597 | 0.581 | 0.331 | 0.417 | 0.355 | 0.185 | 0.321 | 0.869 | 0.856 | 0.826 | 0.815 | 0.548 |  |  |
| NCI-H1793 | 0.684 | 0.973 | 0.519 | 0.61 | 0.357 | 0.405 | 0.349 | 0.262 | 0.343 | 0.365 | 0.454 | 0.459 | 0.356 |  | 0.625 | 0.704 | 0.69 | 0.79 | 0.63 | 0.329 |
| NCI-H1915 | 1.13 |  | 1.1 | 1.11 | 0.367 |  | 0.401 | 0.349 | 0.282 | 0.328 | 0.289 | 0.318 | 0.328 | 1.03 | 0.996 | 1.07 | 1.07 | 0.938 |  |  |
| NCI-H1944 | 0.832 |  | 0.793 | 0.85 | 0.196 |  | 0.196 | 0.186 | 0.202 | 0.208 | 0.328 | 0.243 | 0.282 | 0.723 | 0.726 | 0.782 | 0.795 | 0.646 |  |  |
| NCI-H1975 | 0.96 | 0.924 |  | 0.998 | 0.402 | 0.422 |  | 0.408 | 0.366 | 0.353 | 0.295 | 0.22 | 0.165 | 0.609 | 0.5 | 0.553 | 0.475 | 0.358 | 1.02 | 0.405 |
| NCI-H1993 | 0.862 | 0.828 | 0.638 | 0.742 | 0.469 | 0.603 | 0.523 | 0.451 | 0.532 | 0.513 | 0.52 | 0.545 | 0.485 | 0.683 | 0.683 | 0.719 | 0.644 | 0.619 | 0.864 | 0.5 |
| NCI-H2009 | 1.17 | 1.18 | 1.18 | 1.19 | 0.48 | 0.463 | 0.427 | 0.381 | 0.249 | 0.308 | 0.264 | 0.299 | 0.312 | 1.08 | 1.16 | 1.11 | 1.24 | 1.21 | 1.18 | 0.434 |
| NCI-H2023 | 0.721 | 0.745 | 0.836 | 0.73 | 0.371 | 0.397 | 0.429 | 0.317 | 0.456 | 0.427 | 0.434 | 0.348 | 0.338 | 0.616 | 0.506 | 0.561 | 0.516 | 0.563 | 0.786 | 0.409 |
| NCI-H2085 | 0.91 | 0.919 | 1.23 | 0.878 | 0.717 | 0.771 | 0.778 | 0.657 | 0.241 | 0.243 | 0.241 | 0.186 | 0.243 | 0.887 | 1.02 | 0.946 | 0.833 | 0.705 | 0.851 | 0.631 |
| NCI-H2087 | 0.907 | 1.18 | 1.11 | 1.17 | 0.393 | 0.534 | 0.5 | 0.393 | 0.67 | 0.804 | 0.742 | 0.778 | 0.796 | 0.931 | 1.14 | 0.772 | 1.29 | 0.932 | 1.26 | 0.347 |
| NCI-H2126 | 0.97 | 1.08 | 1.35 | 1.02 | 0.548 | 0.552 | 0.507 | 0.503 | 0.533 | 0.433 | 0.505 | 0.466 | 0.4 | 0.664 | 0.689 | 0.727 | 0.71 | 0.634 | 1.08 | 0.515 |
| NCI-H2170 | 1.04 | 1.16 | 1.02 | 0.994 | 0.396 | 0.386 | 0.386 | 0.378 | 0.581 | 0.574 | 0.609 | 0.564 | 0.489 | 0.706 | 0.691 | 0.639 | 0.707 | 0.555 | 1.05 | 0.354 |
| NCI-H2228 | 0.763 | 0.838 | 0.861 | 0.777 | 0.302 | 0.335 | 0.398 | 0.215 | 0.402 | 0.605 | 0.468 | 0.433 | 0.445 | 0.476 | 0.644 | 0.612 | 0.688 | 0.502 | 0.672 | 0.347 |
| NCI-H2347 | 0.847 | 1.09 | 0.787 | 1.15 | 0.402 | 0.333 | 0.374 | 0.327 | 0.274 | 0.301 |  | 0.388 | 0.389 | 0.821 | 1.11 | 0.614 | 1.07 | 0.993 | 1.02 | 0.391 |
| NCI-H2405 | 1.02 | 0.98 | 0.963 | 1.05 | 0.366 | 0.399 | 0.459 | 0.247 | 0.202 | 0.176 | 0.15 | 0.16 | 0.22 | 0.679 | 0.799 | 0.578 | 0.87 | 0.699 | 0.943 | 0.379 |
